In patent publication US10023519B2, “Cyclobutane containing carboxylic acid GPR120 modulators” (BRISTOL-MYERS SQUIBB COMPANY, priority 2014, dated 2018):

Experiments:
[1] = molecular target: human GPR120 (Homo sapiens (Human), UniProt Q5NUL3); assay: GPR120 pERK AlphaScreen SureFire Assay (human); assay type: cell-based; conditions: CHO cells stably transfected with short form of human GPR120
Source text: GPR120 activity was monitored by measuring phosphorylation of ERK (pERK), since G protein receptors are known to activate the ERK signaling cascade either directly and/or through recruitment of arrestin that serves as a scaffold for downstream signaling events.
GPR120 pERK AlphaScreen SureFire Assay
The human and mouse GPR120-mediated intracellular phosphorylated ERK assays were established using CHOA12 cells stably transfected with the short form of human or mouse GPR120 receptor. […] Cells were cryo preserved at a concentration of 2×10^7 cells/mL, in 90% Charcoal/Dextran FBS and 10% DMSO, and frozen in liquid nitrogen at a low passage number.
The flasks were placed in a tissue culture incubator overnight (37° C., 5% CO2). […] The next day, cells were serum starved in 30 μL of F-12 media without any serum or antibiotics for 2 hours at 37° C.
Cells were then stimulated with 50 nL of compound dilutions using ECHO liquid handler for 7 minutes at 37° C.
(§1) The lysis buffer was diluted 5-fold with water before use. […] The SureFire assay reagent mix was prepared by mixing 60 parts Reaction Buffer, 10 parts Activation Buffer, 1 part Donor Beads, 1 part Acceptor Beads (Perkin Elmer Cat. #TGRES10K). 3.5 μL/well of this reagent mix was manually added to the proxiplate with a multichannel pipettor. Plates were spun down at 1000 rpm for 2 minutes, followed by light-protected incubation at room temperature for 2 hours. The plates were read on the Alpha-technology compatible Envision multilabel plate reader using AlphaScreen protocol according to manufacturer's specifications. The agonist effect of compounds was expressed as 100× (average sample−average blank)/(average total−average blank) where sample is the luminescence activity in the presence of test compound, blank is equal to the luminescence activity in the presence of DMSO control and the total is signal induced by 50 μM linolenic acid as reference compound. Activation data for the test compound over a range of concentrations was plotted as percentage activation of the test compound (100%=maximum response). After correcting for background, EC50 values were determined.
The human and mouse GPR120-mediated intracellular phosphorylated ERK assays were also established using CHO-K1 cells stably transfected with the short form of human or mouse GPR120 receptor. […] Cells were cryo preserved at a concentration of 3×10^6 cells/mL, in 70% F-12, 20% Charcoal/Dextran FBS and 10% DMSO, and frozen in liquid nitrogen at a low passage number.
The flasks were placed in a tissue culture incubator overnight (37° C., 5% CO2).
Cells were then stimulated with 40 nL of compound dilutions using ECHO liquid handler for 7 minutes at 37° C.
as §1, with “compound.” for “compound. Activation data for the test compound over a range of concentrations was plotted as percentage activation of the test compound (100%=maximum response). After correcting for background, EC50 values were determined.”
Activation data for the test compound over a range of concentrations was plotted as percentage activation of the test compound (100%=maximum response). After correcting for background, EC50 values were determined.

[2] = test system: C57BL/6 mice; assay: Acute Oral Glucose Tolerance Test; assay type: in vivo, mouse; conditions: dosed at 30 mg/kg orally 60 min before glucose challenge (2 g/kg), AUC t=0-120 min compared to vehicle
Description: In Vivo GPR120 Assays 1) Acute Oral Glucose Tolerance Test
C57BL/6 mice were housed individually and fed a standard rodent chow diet. At approximately 11 weeks age, after a 5 h fast, these mice were orally treated with vehicle or test compounds 60 min before a glucose challenge (2 g/kg). Blood glucose levels were determined from tail bleeds taken at −60, 0, 15, 30, 60 and 120 min after the glucose challenge. […] This AUC for compound treatment is compared to vehicle treatment.

Chain of human GPR120 (Q5NUL3 whole entry): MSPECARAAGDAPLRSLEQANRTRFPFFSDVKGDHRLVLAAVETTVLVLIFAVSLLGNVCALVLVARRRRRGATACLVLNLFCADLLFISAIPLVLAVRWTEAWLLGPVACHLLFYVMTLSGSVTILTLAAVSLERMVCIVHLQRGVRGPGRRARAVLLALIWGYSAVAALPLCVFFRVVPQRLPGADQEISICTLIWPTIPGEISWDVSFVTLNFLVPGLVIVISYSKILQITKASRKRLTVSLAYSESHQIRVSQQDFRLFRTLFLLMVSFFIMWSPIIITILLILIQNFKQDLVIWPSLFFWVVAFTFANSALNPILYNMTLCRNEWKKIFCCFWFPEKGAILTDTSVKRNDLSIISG

Row | Compound | EC50 [1] [nM] | reduced glucose AUC [2] [%]
1 | O=C(O)CO[C@H]1C[C@@H](c2ccc(-c3cc(Oc4ccccc4)ccc3F)cc2)C1 [Example 1, Cis-2-(-3-(2′-fluoro-5′-phenoxy-[1,1′-biphenyl]-4-yl)cyclobutoxy)acetic acid] | 170 | 42
2 | Cc1cc(OC(C)C)cc(-c2ccc([C@H]3C[C@@H](OCC(=O)O)C3)cc2)c1 [Example 12, Cis-2-(3-(3′-isopropoxy-5′-methyl-[1,1′-biphenyl]-4-yl)cyclobutoxy) acetic acid] | 430 | –
3 | O=C(O)CO[C@H]1C[C@@H](c2ccc(-c3cc(Oc4cccnc4)ccc3F)cc2)C1 [Example 28, Cis-2-(3-(2′-fluoro-5′-(pyridin-3-yloxy)-[1,1′-biphenyl]-4-yl)cyclobutoxy) acetic acid] | 660 | –
